Experimental findings from patent US8044073B2, “Aminobenzimidazoles and benzimidazoles as inhibitors of respiratory syncytial virus replication” (Tibotec Pharmaceuticals, priority 2003, dated 2011) are described below.

One may read the melting point as the temperature, or range, at which the solid turns liquid.

Series [1] deals with Respiratory Syncytial Virus. Kind of series: In vitro screening for activity against RSV (tetrazolium-based colorimetric assay, protection against viral cytopathology). Type of series: cell-based. As to conditions: human respiratory syncytial virus. In a few lines:
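HeLa cells in Eagle's Basal Medium with 5% FCS and 20 mM Hepes, ~100 TCID50 RSV, five five-fold compound dilutions in triplicate with mock-infected row for cytotoxicity; 7 days at 37 °C, 5% CO2. MTT formazan read at 540 minus 690 nm; EC50 and CC50 from dose-response curves, SI = CC50/EC50.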

Setting [2] is: 168 h, Table 3, RSV in HeLa cells, MTT, seven days after infection, pEC50 = -log of EC50 in molar units, read-out: Activity (converted).
[3] abbreviates: 168 h, Table 5a, RSV in HeLa cells, MTT, seven days after infection, pEC50 = -log of EC50 in molar units, read-out: Activity (converted).
[4] abbreviates: 168 h, Table 5b, RSV in HeLa cells, MTT, seven days after infection, pEC50 = -log of EC50 in molar units, read-out: Activity (converted).
Setting [5] is: Table 6, numeric activity values, pEC50 (−log of EC50 in molar units), read-out: Activity (converted).

Where two headings read alike, the source gives them in different places.

In turn, `Cc1ccc(CCCO)c(NCc2ccc3nc(N)n(Cc4nc(C)ccc4OCc4ccccc4)c3c2)c1` [Compound 128] came in with a melting point of 129 °C. For the same compound, the EC50 in series [1] (168 h, table of compound 128 (scheme E), RSV in HeLa cells, MTT, seven days after infection, read-out: Activity category (converted)) is 126 nM.
In turn, `Cc1cccc(N(CCO)Cc2ccc3nc(N)n(Cc4nc(C)ccc4O)c3c2)c1` [Compound 129, 2-(2-amino-6-{[(2-hydroxy-ethyl)-m-tolyl-amino]-methyl}-benzoimidazol-1-ylmethyl)-6-methyl-pyridin-3-ol] displayed a melting point of 210 °C. The EC50 in series [1] (setting [2]) was 0.501 nM.
As for `Cc1cccc(N(CCN)Cc2ccc3nc(N)n(Cc4nc(C)ccc4O)c3c2)c1.Cl` [Compound 131, 2-(2-amino-6-{[(2-amino-ethyl)-m-tolyl-amino]-methyl}-benzoimidazol-1-ylmethyl)-6-methyl-pyridin-3-ol HCl salt], the melting point came to 200 °C. Moreover, the EC50 in series [1] (setting [2]) was 3.98 nM.
Take `Cc1ccc(O)c(Cn2c(N)nc3ccc(CN(CCC(N)=O)c4cccc(Br)c4)cc32)n1` [Compound 137, 3-[[2-Amino-3-(3-hydroxy-6-methyl-pyridin-2-ylmethyl)-3H-benzoimidazol-5-ylmethyl]-(3-bromo-phenyl)-amino]-propionamide]: the melting point stood at 245 °C. Besides, the EC50 in series [1] (setting [2]) is 0.251 nM.
For `Cc1ccc(O)c(Cn2c(N)nc3ccc(CN(CCCCO)c4cccc(Br)c4)cc32)n1` [Compound 139, 2-(2-Amino-6-{[(3-bromo-phenyl)-(4-hydroxy-butyl)-amino]-methyl}-benzoimidazol-1-ylmethyl)-6-methyl-pyridin-3-ol], in that order: 120 °C and 0.398 nM.
The corresponding values for `Cc1ccc(O)c(Cn2c(N)nc3ccc(CN(CCN4CCOCC4)c4ccccc4CCO)cc32)n1` [Compound 160, 2-(2-Amino-6-{[[2-(2-hydroxy-ethyl)-phenyl]-(2-morpholin-4-yl-ethyl)-amino]-methyl}-benzoimidazol-1-ylmethyl)-6-methyl-pyridin-3-ol] are 184 °C and 7.94 nM.
The compound `Cc1cccc(N(CCC(=O)O)Cc2ccc3nc(N)n(Cc4nc(C)ccc4O)c3c2)c1` [Compound 161, 3-{[2-amino-3-(3-hydroxy-6-methyl-pyridin-2-ylmethyl)-3H-benzoimidazol-5-ylmethyl]-m-tolyl-amino}-propionic acid] gave a melting point of 165 °C. Also, the EC50 in series [1] (setting [2]) was 7.94 nM.
`Cc1ccc(O)c(Cn2c(N)nc3ccc(Cn4c(=O)n(C5CC5)c5ccncc54)cc32)n1` [Compound 183] displayed a melting point above 250 °C. Further, the EC50 in series [1] (168 h, Table 3b, RSV in HeLa cells, MTT, seven days after infection, pEC50 = -log of EC50 in molar units, read-out: Activity (converted)) is 39.8 nM.
`Cc1cccc(NCc2cc(C)c3nc(N)n(Cc4nc(C)ccc4O)c3c2)c1` [Compound 194, 2-[2-amino-4-methyl-6-(m-tolylamino-methyl)-benzoimidazol-1-ylmethyl]-6-methyl-pyridin-3-ol] came in with a melting point of 252 °C. Also, the EC50 in series [1] (setting [3]) is 12.6 nM.
The corresponding values for `CNc1nc2ccc(CN(CCO)c3cccc(C)c3)cc2n1Cc1nc(C)ccc1O` [Compound 195, 2-(6-{[(2-hydroxy-ethyl)-m-tolyl-amino]-methyl}-2-methylamino-benzoimidazol-1-ylmethyl)-6-methyl-pyridin-3-ol] are 204 °C and 15.8 nM.
As for `Cc1cccc(N(CCCO)Cc2ccc3nc(N)n(Cc4cccc5cccnc45)c3c2)c1` [Compound 205, 3-[(2-amino-3-quinolin-8-ylmethyl-3H-benzoimidazol-5-ylmethyl)-m-tolyl-amino]-propan-1-ol], the melting point came to 191 °C. For the same compound, the EC50 in series [1] (setting [4]) was 50.1 nM.
Compound `Nc1nc2cc(CO)ccc2n1Cc1cccc2cccnc12` [Compound 224, (2-amino-1-quinolin-8-ylmethyl-1H-benzoimidazol-5-yl)-methanol] gave a melting point above 260 °C. Further, the EC50 in series [1] (setting [4]) is above 100000 nM.
For the compound `Cc1ccc(O)c(Cn2cnc3cc(N)ccc32)n1` [Compound 259], the melting point is 248 °C. Further, in series [1] (setting [5]), the EC50 was above 100000 nM.
In turn, `Cc1ccc(O)c(Cn2cnc3ccc(N)cc32)n1` [Compound 261] displayed a melting point above 250 °C. In series [1] (setting [5]), the EC50 was above 100000 nM.
